# Assay: Supersaturation potential of a triclosan solution (calculated from solubilities)
# Assay type: physicochemical
# Conditions: skin pH e.g. pH 5.5; 200ppm triclosan solution at pH 10 as starting composition
# Procedure: The supersaturation potential of a solution at pH 10 containing 200ppm triclosan was calculated by dividing the concentration of triclosan in that solution by the concentration of triclosan in the solutions at lower pHs.
smiles,measurement,value
Oc1cc(Cl)ccc1Oc1ccc(Cl)cc1Cl [triclosan],degree of supersaturation achievable at a skin pH,30 X

# From patent EP0862417B1, “PHARMACEUTICAL COMPOSITION FOR TOPICAL APPLICATION” (Reckitt Benckiser Healthcare (UK) Limited, priority 1995, dated 1997)
